Measurements as given in patent publication US8415299B2, “Methods for improved avian performance” (priority 2004, dated 2013).
Read-outs that look alike come from different tables or passages of the source.

Tests used:
[1] = system: 96-week old Hy-Line W-36 White Leghorn hens
Excerpt: Experiment 3. […] The photoperiod serves as the primary environmental signal that regulates reproductive function in many avian species. Increasing the photoperiod promotes maturation of the gonads and reproductive tract, whereas reducing the photoperiod causes the gonads and reproductive tract to regress and molting to occur.

laying hens = conditions: cited from earlier work
[2] = system: 60-week old Hy-Line W-36 White Leghorn hens; conditions: for Feed Intake: day 22 to day 28
Description: Experiment 1. […] The photoperiod was 17 hours of light per day (0330 hours to 2030 hours).

[3] = 20 mg/kg feed, 8 hr L, Day 30-34
[4] = 20 mg/kg feed, 8 hr L, Days 13-15
[5] = 20 mg/kg feed, 8 hr L, Days 16-22
[6] = 20 mg/kg feed, 17 hr L, Day 30-34
[7] = 20 mg/kg feed, 17 hr L, Days 13-15
[8] = 20 mg/kg feed, 17 hr L, Days 16-22
[9] = 40 mg T4/kg test diet, Chamber 6 (17 hr light)
[10] = 40 mg/kg feed, 8 hr L, Day 30-34
[11] = 40 mg/kg feed, 8 hr L, Days 13-15
[12] = 40 mg/kg feed, 8 hr L, Days 16-22
[13] = 40 mg/kg feed, 17 hr L, Day 30-34
[14] = 40 mg/kg feed, 17 hr L, Days 13-15

N[C@@H](Cc1cc(I)c(Oc2cc(I)c(O)c(I)c2)c(I)c1)C(=O)O [L-thyroxine, 3,5,3′,5′-tetraiodothyronine]
Molting ([1]; 20 mg T4/kg groups, either chamber): None of the hens in the Control groups or 20 mg T4/kg groups molted in either chamber | Time within which egg production was significantly reduced ([1]; 20 mg T4/kg, Chamber 6 (17 hr light)): ≤ 8 days | Hen-day egg production ([1]; 20 mg/kg feed 12 d from day 13, 8 hr L, day 30): 6.3% | Feed consumption (FC) [1, 3]: 82.5 g/hen/d | Feed consumption change from days 1-12 (% FCC) [1, 3]: −32.0% | Feed consumption (FC) ([1]; 20 mg/kg feed, 8 hr L, Days 1-12 (pre-treatment)): 121.3 g/hen/d | Feed consumption (FC) [1, 4]: 41.8 g/hen/d | Feed consumption change from days 1-12 (% FCC) [1, 4]: −65.5% | Feed consumption (FC) [1, 5]: 44.5 g/hen/d | Feed consumption change from days 1-12 (% FCC) [1, 5]: −63.3% | Feed consumption (FC) [1, 6]: 135.0 g/hen/d | Feed consumption change from days 1-12 (% FCC) [1, 6]: 11.1% | Feed consumption (FC) ([1]; 20 mg/kg feed, 17 hr L, Days 1-12 (pre-treatment)): 121.5 g/hen/d | Feed consumption (FC) [1, 7]: 58.0 g/hen/d | Feed consumption change from days 1-12 (% FCC) [1, 7]: −52.3% | Feed consumption (FC) [1, 8]: 51.8 g/hen/d | Feed consumption change from days 1-12 (% FCC) [1, 8]: −57.4% | Hens that molted fully ([1]; 40 mg T4/kg Group, Chamber 5 (8 hr light), 7/12): 58% | Loss of initial body weight [1, 9]: approximately 18% | Reduction of feed intake [1, 9]: approximately 65% | Time within which egg production was significantly reduced ([1]; 40 mg T4/kg, Chamber 6 (17 hr light)): ≤ 6 days | Hens that molted fully ([1]; 40 mg T4 kg Group, Chamber 6 (17 hr light)): 100% | Hen-day egg production ([1]; 40 mg/kg feed 12 d from day 13, 17 hr L, day 22): 0.0% | Hen-day egg production ([1]; 40 mg/kg feed 12 d from day 13, 17 hr L, day 24): 0.0% | Hen-day egg production ([1]; 40 mg/kg feed 12 d from day 13, 17 hr L, day 26): 0.0% | Hen-day egg production ([1]; 40 mg/kg feed 12 d from day 13, 17 hr L, day 28): 0.0% | Hen-day egg production ([1]; 40 mg/kg feed 12 d from day 13, 17 hr L, day 30): 0.0% | Hen-day egg production ([1]; 40 mg/kg feed 12 d from day 13, 17 hr L, day 32): 0.0% | Hen-day egg production ([1]; 40 mg/kg feed 12 d from day 13, 17 hr L, day 34): 0.0% | Feed consumption (FC) [1, 10]: 104.8 g/hen/d | Feed consumption change from days 1-12 (% FCC) [1, 10]: −9.5% | Feed consumption (FC) ([1]; 40 mg/kg feed, 8 hr L, Days 1-12 (pre-treatment)): 115.8 g/hen/d | Feed consumption (FC) [1, 11]: 36.8 g/hen/d | Feed consumption change from days 1-12 (% FCC) [1, 11]: −68.2% | Feed consumption (FC) [1, 12]: 35.3 g/hen/d | Feed consumption change from days 1-12 (% FCC) [1, 12]: −69.5% | Feed consumption (FC) [1, 13]: 93.3 g/hen/d | Feed consumption change from days 1-12 (% FCC) [1, 13]: −9.7% | Feed consumption (FC) ([1]; 40 mg/kg feed, 17 hr L, Days 1-12 (pre-treatment)): 103.3 g/hen/d | Feed consumption (FC) [1, 14]: 42.0 g/hen/d | Feed consumption change from days 1-12 (% FCC) [1, 14]: −59.3% | Feed consumption change from days 1-12 (% FCC) ([1]; 40 mg/kg feed, 17 hr L, Days 16-22): −63.7% | Mortality ([1]; 20, 40 mg T4/kg feed 12 days): No mortality occurred in any of the Groups | Time within which egg production was significantly reduced ([1]; 20 and 40 mg T4/kg, Chamber 5 (8 hr light)): ≤ 4 days | Effect on egg production and molting (laying hens; 0.2 mg per hen for 21 consecutive days (Szelenyi and Peczely 1988)): diminished egg production but did not result in molting | Mortality (laying hens; injected, e.g. 243 micrograms/100 g body weight, White Leghorn hens 7 months of age (Miller et al. 1962)): 47% | Effect on egg production ([2]; 250 μg T4 per kg body weight i.m. for 12 consecutive days): did not reduce egg production significantly | Day after start of T4 injection on which molting began in all cages ([2]; 500 μg T4 Group): 11 days | Time after start of injecting at which egg production was significantly reduced ([2]; 500 μg T4 Group): 4 days | Day after start of T4 injection on which molting began in all cages ([2]; 1,000 μg T4 Group): 9 days | Time after start of injecting at which egg production was significantly reduced ([2]; 1,000 μg T4 Group): 4 days | Mortality ([2]; 1,000 μg T4 Group, 2 of 8 hens, died 9th and 10th day after start of injection): 25% | Day after start of injection on which molting commenced in all cages ([2]; 2,000 μg T4 Group): 9 days | Time to rapid and complete cessation of egg production ([2]; 2,000 μg T4 per kg body weight i.m. for 3 consecutive days): ≤ 6 days | Day after start of injection on which molting commenced in all cages ([2]; 4,000 μg T4 Group): 9 days | Mortality ([2]; 4000 μg T4 Group, 1 of 4 hens, died 8th day after start of injection): 25% | Time to rapid and complete cessation of egg production ([2]; 4,000 μg T4 per kg body weight i.m. for 3 consecutive days): ≤ 4 days | End of Injections Body Weight ([2]; 250 mcg/kg BW i.m. 12 d): 1300 g | Feed Intake ([2]; 250 mcg/kg BW i.m. 12 d): 58.7 g/hen/day | Feed Intake ([2]; 500 mcg/kg BW i.m. 8 d): 52.3 g/hen/day | Feed Intake ([2]; 1,000 mcg/kg BW i.m. 8 d): 31.4 g/hen/day
